Experimental data taken from patent US20060281711A1, “IL-12 modulatory compounds” (Synta Pharmaceuticals Corp., priority 2005, published 2006).

Legend:
[1] = test system: IL-12; experiment: Human in vitro assay: inhibition of IL-12 production in stimulated human PBMC or THP-1 cells (ELISA); assay type: cell-based; settings: read-out: IC50 Range (in vitro IC50 for IL-12)
From the text: The biological activities of a compound of the invention can be evaluated by a number of cell-based assays. One of such assays can be conducted using cells from human peripheral blood mononuclear cells (PBMC) or human monocytic cell line (THP-1). The cells are stimulated with a combination of human interferon-γ (IFNγ) and lipopolysaccharide or a combination of IFNγ and Staphylococcus aureus Cowan I in the presence of a test compound. The level of inhibition of IL-12 production can be measured by determining the amount of p70 by using a sandwich ELISA assay with anti-human IL-12 antibodies. IC50 of the test compound can then be determined. Specifically, PBMC or THP-1 cells are incubated with the test compound. Cell viability was assessed using the bioreduction of MTS [3-(4,5-dimethylthiazol-2-yl)-5-(3-carboxymethoxyphenyl)-2-(4-sulfophenyl)-2H-tetrazolium] (Promega, Madison, Wis.).
8. Reagents. Staphylococcus aureus Cowan I (SAC) was obtained from Calbiochem (La Jolla, Calif.), and lipopolysaccharide (LPS, Serratia marscencens) was obtained from Sigma (St. Louis, Mo.). Human and mouse recombinant IFNγ were purchased from Boehringer Mannheim (Mannheim, Germany) and Pharmingen (San Diego, Calif.), respectively.
9. Human In Vitro Assay. Human PBMC were isolated by centrifugation using Ficoll-Paque (Pharmacia Biotech, Uppsala, Sweden) and prepared in RPMI medium supplemented with 10% fetal calf serum (FCS), 100 U/mL penicillin, and 100 μg/mL streptomycin. PBMC were plated in wells of a 96-well plate at a concentration of 5×10^5 cells/well, and primed by adding IFNγ (30 U/mL) for 22 h and stimulated by adding LPS (1 μg/mL), or by adding IFNγ (100 U/mL) and then stimulated by adding SAC (0.01%). A test pyrimidine compound was dissolved in DMSO, and added to wells of the 96-well plate. The final DMSO concentration was adjusted to 0.25% in all cultures, including the compound-free control. Human THP-1 cells were plated in wells, primed by adding IFNγ (100 U/mL) for 22 h and stimulated by adding SAC (0.025%) in the presence of different concentrations of the pyrimidine compound. Cell-free supernatants were taken 18 h later for measurement of cytokines. Cell viability was assessed using the bioreduction of MTS. Cell survival was estimated by determining the ratio of the absorbance in compound-treated groups versus compound-free control.
10. The supernatant was assayed for the amount of […], IL-12p70, or IL-10 by using a sandwich ELISA with anti-human antibodies, i.e., a Human IL-12 p40 ELISA kit from R&D Systems (Berkeley, Calif.), and a Human IL-12 p70 or IL-10 ELISA kit from Endogen (Cambridge, Mass.). Assays were based on the manufacturer's instructions.
The biological activities of compounds of the invention were tested on human PBMC or THP-1 cells.

[2] = test system: Adjuvant arthritis (AA) in female Lewis rats; experiment: Treatment of adjuvant arthritis in rats; assay type: in vivo, rat; settings: orally once a day for 7 days (day 7-14)
Method: Adjuvant arthritis (AA) was induced in female Lewis rats by the intracutaneous injection (base of the tail) of 0.1 mL of a 10 mg/mL bacterial suspension made from ground, heat-killed Mycobacterium tuberculosis H37Ra suspended in incomplete Freund's adjuvant. Rats were given a test compound orally once a day for 7 days (day 7-14), starting day 7 after mycobacterium induction. The development of polyarthritis was monitored daily by macroscopic inspection and assignment of an arthritis index to each animal, during the critical period (days 10 to 25 post-immunization).
The intensity of polyarthritis was scored according to the following scheme: (a) Grade each paw from 0 to 3 based on erythema, swelling, and deformity of the joints: 0 for no erythema or swelling; 0.5 if swelling is detectable in at least one joint; 1 for mild swelling and erythema; 2 for swelling and erythema of both tarsus and carpus; and 3 for ankylosis and bony deformity. Maximum score for all 4 paws is thus 12. (b) Grade for other parts of the body: for each ear, 0.5 for redness and another 0.5 if knots are present; 1 for connective tissue swelling (saddle nose); and 1 for the presence of knots or kinks in the tail. The highest possible arthritic index is 16.
Experiments with the AA model were repeated four times. […] The arthritis score used in this model is a reflection of the inflammatory state of the structures monitored and the results therefore show the ability of the test compound to provide relief for this aspect of the pathology.

Compound | IC50 [1] | percent reduction in arthritic score ([2]; 20 mg/kg dose) | percent reduction in arthritic score ([2]; 50 mg/kg dose)
Cc1ccc2c(c1)/C(=N/Nc1cc(N3CCOCC3)nc(OCCN3CCOCC3)n1)C(=O)N2 [Compound 1, 5-methyl-3-{[6-morpholin-4-yl-2-(2-morpholin-4-yl-ethoxy)-pyrimidin-4-yl]-hydrazono}-1,3-dihydro-indol-2-one] | < 1 µM |  | 
Cc1ccc2c(c1)/C(=N/Nc1cc(N3CCOCC3)nc(OCCN3CCOCC3)n1)CCO2 [Compound 2, N-(6-Methyl-chroman-4-ylidene)-N′-[6-morpholin-4-yl-2-(2-morpholin-4-yl-ethoxy)-pyrimidin-4-yl]-hydrazine] | < 1 µM | 21% reduction | 32% reduction
Cc1ccc2c(c1)/C(=N/Nc1cc(N3CCOCC3)nc(OCCN3CCOCC3)n1)CC2 [Compound 3, N-(6-Methyl-indan-1-ylidene)-N′-[6-morpholin-4-yl-2-(2-morpholin-4-yl-ethoxy)-pyrimidin-4-yl]-hydrazine] | < 1 µM | 25% reduction | 
c1ccc2c(c1)CC/C2=N\Nc1cc(N2CCOCC2)nc(OCCN2CCOCC2)n1 [Compound 4, N-(Indan-1-ylidene)-N′-[6-morpholin-4-yl-2-(2-morpholin-4-yl-ethoxy)-pyrimidin-4-yl]-hydrazine] | ≥ 1 µM |  | 
c1ccc2c(c1)OC/C2=N\Nc1cc(N2CCOCC2)nc(OCCN2CCOCC2)n1 [Compound 5, N-(Benzofuran-3-ylidene)-N′-[6-morpholin-4-yl-2-(2-morpholin-4-yl-ethoxy)-pyrimidin-4-yl]-hydrazine] | ≥ 1 µM |  | 
CC1C/C(=N/Nc2cc(N3CCOCC3)nc(OCCN3CCOCC3)n2)c2ccccc21 (stereo not drawn) [Compound 6, N-(3-Methyl-indan-1-ylidene)-N′-[6-morpholin-4-yl-2-(2-morpholin-4-yl-ethoxy)-pyrimidin-4-yl]-hydrazine] | ≥ 1 µM |  | 
Cc1cccc2c1CC/C2=N\Nc1cc(N2CCOCC2)nc(OCCN2CCOCC2)n1 [Compound 7, N-(4-Methyl-indan-1-ylidene)-N′-[6-morpholin-4-yl-2-(2-morpholin-4-yl-ethoxy)-pyrimidin-4-yl]-hydrazine] | ≥ 1 µM |  | 
COc1ccc2c(c1)CC/C2=N\Nc1cc(N2CCOCC2)nc(OCCN2CCOCC2)n1 [Compound 8, N-(5-Methoxy-indan-1-ylidene)-N′-[6-morpholin-4-yl-2-(2-morpholin-4-yl-ethoxy)-pyrimidin-4-yl]-hydrazine] | ≥ 1 µM |  | 
c1ccc2c(c1)CC(=NNc1cc(N3CCOCC3)nc(OCCN3CCOCC3)n1)C2 [Compound 10, N-(Indan-2-ylidene)-N′-[6-morpholin-4-yl-2-(2-morpholin-4-yl-ethoxy)-pyrimidin-4-yl]-hydrazine] | ≥ 1 µM |  | 
c1ccc2c(c1)CCC/C2=N\Nc1cc(N2CCOCC2)nc(OCCN2CCOCC2)n1 [Compound 11, N-(3,4-Dihydro-2H-naphthalen-1-ylidene)-N′-[6-morpholin-4-yl-2-(2-morpholin-4-yl-ethoxy)-pyrimidin-4-yl]-hydrazine] | ≥ 1 µM |  | 
c1ccc2c(c1)OCC/C2=N\Nc1cc(N2CCOCC2)nc(OCCN2CCOCC2)n1 [Compound 12, N-(Chroman-4-ylidene)-N′-[6-morpholin-4-yl-2-(2-morpholin-4-yl-ethoxy)-pyrimidin-4-yl]-hydrazine] | ≥ 1 µM |  | 
COc1ccc2c(c1)CCC/C2=N\Nc1cc(N2CCOCC2)nc(OCCN2CCOCC2)n1 [Compound 13, N-(6-Methoxy-3,4-dihydro-2H-naphthalen-1-ylidene)-N′-[6-morpholin-4-yl-2-(2-morpholin-4-yl-ethoxy)-pyrimidin-4-yl]-hydrazine] | < 1 µM |  | 
COc1ccc2c(c1)/C(=N/Nc1cc(N3CCOCC3)nc(OCCN3CCOCC3)n1)CCC2 [Compound 14, N-(7-Methoxy-3,4-dihydro-2H-naphthalen-1-ylidene)-N′-[6-morpholin-4-yl-2-(2-morpholin-4-yl-ethoxy)-pyrimidin-4-yl]-hydrazine] | < 1 µM |  | 
O=[N+]([O-])c1ccc2c(c1)/C(=N/Nc1cc(N3CCOCC3)nc(OCCN3CCOCC3)n1)CCC2 [Compound 15, N-(7-Nitro-3,4-dihydro-2H-naphthalen-1-ylidene)-N′-[6-morpholin-4-yl-2-(2-morpholin-4-yl-ethoxy)-pyrimidin-4-yl]-hydrazine] | < 1 µM |  | 
Oc1ccc2c(c1)CCC/C2=N\Nc1cc(N2CCOCC2)nc(OCCN2CCOCC2)n1 [Compound 16, N-(6-Hydroxy-3,4-dihydro-2H-naphthalen-1-ylidene)-N′-[6-morpholin-4-yl-2-(2-morpholin-4-yl-ethoxy)-pyrimidin-4-yl]-hydrazine] | < 1 µM |  | 
Cc1cc(C)c2c(c1)/C(=N/Nc1cc(N3CCOCC3)nc(OCCN3CCOCC3)n1)CCC2 [Compound 17, N-(5,7-Dimethyl-3,4-dihydro-2H-naphthalen-1-ylidene)-N′-[6-morpholin-4-yl-2-(2-morpholin-4-yl-ethoxy)-pyrimidin-4-yl]-hydrazine] | < 1 µM |  | 
CC1CC/C(=N\Nc2cc(N3CCOCC3)nc(OCCN3CCOCC3)n2)c2ccccc21 (stereo not drawn) [Compound 19, N-(4-Methyl-3,4-dihydro-2H-naphthalen-1-ylidene)-N′-[6-morpholin-4-yl-2-(2-morpholin-4-yl-ethoxy)-pyrimidin-4-yl]-hydrazine] | ≥ 1 µM |  | 
CN1C(=O)/C(=N/Nc2cc(N3CCOCC3)nc(OCCN3CCOCC3)n2)c2ccccc21 [Compound 20, 1-Methyl-3-{[6-morpholin-4-yl-2-(2-morpholin-4-yl-ethoxy)-pyrimidin-4-yl]-hydrazono}-1,3-dihydro-indol-2-one] | ≥ 1 µM |  | 
O=C1OCCN1CCOc1nc(N/N=C2\CCCc3cc(O)ccc32)cc(N2CCOCC2)n1 [Compound 22, 3-(2-{4-[N′-(6-Hydroxy-3,4-dihydro-2H-naphthalen-1-ylidene)-hydrazino]-6-morpholin-4-yl-pyrimidin-2-yloxy}-ethyl)-oxazolidin-2-one] | < 1 µM |  | 
CC(C)(O)CCc1nc(N/N=C2\CCCc3cc(O)ccc32)cc(N2CCOCC2)n1 [Compound 24, 5-{[2-(3-Hydroxy-3-methyl-butyl)-6-morpholin-4-yl-pyrimidin-4-yl]-hydrazono}-5,6,7,8-tetrahydro-naphthalen-2-ol] | ≥ 1 µM |  | 
Clc1ccc2c(c1)/C(=N/Nc1cc(N3CCOCC3)nc(OCCN3CCOCC3)n1)CCS2 [Compound 37, N-(6-Chloro-thiochroman-4-ylidene)-N′-[6-morpholin-4-yl-2-(2-morpholin-4-yl-ethoxy)-pyrimidin-4-yl]-hydrazine] | < 1 µM |  | 
O=S1(=O)CC/C(=N\Nc2cc(N3CCOCC3)nc(OCCN3CCOCC3)n2)c2cc(Cl)ccc21 [Compound 38, N-(6-Chloro-1,1-dioxo-1λ^6-thiochroman-4-ylidene)-N′-[6-morpholin-4-yl-2-(2-morpholin-4-yl-ethoxy)-pyrimidin-4-yl]-hydrazine] | ≥ 1 µM |  | 
Cc1ccc2occ/c(=N\Nc3cc(N4CCOCC4)nc(OCCN4CCOCC4)n3)c2c1 [Compound 39, N-(6-Methyl-chromen-4-ylidene)-N′-[6-morpholin-4-yl-2-(2-morpholin-4-yl-ethoxy)-pyrimidin-4-yl]-hydrazine] | < 1 µM |  | 
c1cc2c(o1)CCC/C2=N\Nc1cc(N2CCOCC2)nc(OCCN2CCOCC2)n1 [Compound 41, N-(6,7-Dihydro-5H-benzofuran-4-ylidene)-N′-[6-morpholin-4-yl-2-(morpholin-4-yl-ethoxy)-pyrimidin-4-yl]-hydrazine] | ≥ 1 µM |  | 
